In general, melting point refers to the temperature of the solid-liquid transition.

This is an account of results in patent publication US9868750B2, “4,5-diarylimidazole derivatives as HDAC inhibitors” (CHARITÉ—UNIVERSITÄTSMEDIZIN BERLIN, priority 2014, dated 2018).

SMILES strings stand for the structures. Counter-ions that a name gives are not always drawn. Like-named read-outs stand apart in the source and are kept apart here.

For series [1], the system named is BRAF-mutant melanoma (518A2). Nature of the series: Growth inhibition (MTT) in 518A2 melanoma cells. In kind it is cell-based, human.
Series [2] deals with resistant colon (HT-29) cell line. Nature of the series: Growth inhibition (MTT) in HT-29 colon cancer cells. The format is cell-based, human.
In series [3] the test system is resistant breast (MCF-7/Topo) cell line. Nature of the series: Growth inhibition in MCF-7/Topo breast cancer cells. The format is cell-based.
In series [4] the test system is resistant cervix carcinoma (KB-V1/Vbl) cell line. Nature of the series: Growth inhibition in KB-V1/Vbl cervix carcinoma cells. In kind it is cell-based. The settings on record: Homo sapiens, 72 h, read-out: IC50 KB-V1/Vbl.
In series [5] the test system is hybrid endothelial cells (Ea.hy926). Nature of the series: Growth inhibition in Ea.hy926 cells. In kind it is cell-based. The conditions noted are these: for IC50: Homo sapiens, EA.hy 926, 72 h.
Series [6] deals with primary endothelial cells (HUVEC, human umbilical vein endothelial cells). Nature of the series: Growth inhibition in HUVEC. In kind it is cell-based. The conditions noted are these: for IC50: 72 h.
Series [7] concerns non-malignant fibroblasts (CF, chicken fibroblasts). Nature of the series: Growth inhibition in chicken fibroblasts. The format is cell-based. The settings on record: Gallus gallus, Fibroblast, 72 h.
The subject of the next series is 518A2 melanoma cells. Nature of the series: Western blot of 518A2 cell lysates: caspase-9 cleavage and histone H2B acetylation. In kind it is cell-based, human. The conditions noted are these: 518A2 cells; for acetylation of histone proteins (H2B) and alpha-tubulin after drug treatment: Western blot. As for the experimental part:
Western blot analysis of 518A2 cell lysates after drug treatment (3-24 h).

Series [8] has as its system acetylated lysine residues in alpha-tubulin, 518A2 melanoma cells. Nature of the series: Immunoblot for acetylated alpha-tubulin in 518A2 cells. In kind it is cell-based, human. The settings on record: […] or 5 μM, 24 h, versus SAHA 5 μM. From the text: Cell lysates were subjected to gel electrophoresis and immunoblotting for acetylated lysine residues in alpha-tubulin (55 kDa).

The subject of series [9] is HDAC active isolates from HeLa nuclear extract. The conditions noted are these: 0.5 μg extract, 25 μM Fluor-de-Lys substrate, 60 min; read-out: HDAC inhibition IC50, HeLa nuclear extract (values from Mahal et al. 2015); cited from earlier work.
A further series deals with recombinant human HDAC1 (Homo sapiens, UniProt Q13547). Nature of the series: Fluorescence-based HDAC activity assay, recombinant HDAC1. The conditions noted are these: for fold less efficacious than vorinostat on HDAC1: relative to vorinostat IC50.
recombinant human HDAC1, sequence (Q13547 whole entry): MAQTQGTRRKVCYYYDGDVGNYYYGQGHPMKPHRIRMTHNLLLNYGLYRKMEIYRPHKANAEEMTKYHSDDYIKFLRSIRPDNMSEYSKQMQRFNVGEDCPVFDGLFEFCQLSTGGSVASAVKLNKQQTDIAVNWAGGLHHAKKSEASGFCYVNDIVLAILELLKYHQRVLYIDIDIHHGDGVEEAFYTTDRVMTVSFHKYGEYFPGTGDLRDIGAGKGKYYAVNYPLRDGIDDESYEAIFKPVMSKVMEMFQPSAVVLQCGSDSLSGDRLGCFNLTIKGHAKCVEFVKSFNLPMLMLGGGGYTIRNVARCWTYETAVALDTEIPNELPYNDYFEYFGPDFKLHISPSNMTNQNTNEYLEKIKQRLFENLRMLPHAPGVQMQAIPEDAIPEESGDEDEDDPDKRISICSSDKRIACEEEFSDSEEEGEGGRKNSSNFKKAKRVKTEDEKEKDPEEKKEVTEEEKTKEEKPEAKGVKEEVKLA
For another series, the target named is T1, recombinant human HDAC6 (Homo sapiens, UniProt Q9UBN7).
T1 sequence (Q9UBN7 1-1215): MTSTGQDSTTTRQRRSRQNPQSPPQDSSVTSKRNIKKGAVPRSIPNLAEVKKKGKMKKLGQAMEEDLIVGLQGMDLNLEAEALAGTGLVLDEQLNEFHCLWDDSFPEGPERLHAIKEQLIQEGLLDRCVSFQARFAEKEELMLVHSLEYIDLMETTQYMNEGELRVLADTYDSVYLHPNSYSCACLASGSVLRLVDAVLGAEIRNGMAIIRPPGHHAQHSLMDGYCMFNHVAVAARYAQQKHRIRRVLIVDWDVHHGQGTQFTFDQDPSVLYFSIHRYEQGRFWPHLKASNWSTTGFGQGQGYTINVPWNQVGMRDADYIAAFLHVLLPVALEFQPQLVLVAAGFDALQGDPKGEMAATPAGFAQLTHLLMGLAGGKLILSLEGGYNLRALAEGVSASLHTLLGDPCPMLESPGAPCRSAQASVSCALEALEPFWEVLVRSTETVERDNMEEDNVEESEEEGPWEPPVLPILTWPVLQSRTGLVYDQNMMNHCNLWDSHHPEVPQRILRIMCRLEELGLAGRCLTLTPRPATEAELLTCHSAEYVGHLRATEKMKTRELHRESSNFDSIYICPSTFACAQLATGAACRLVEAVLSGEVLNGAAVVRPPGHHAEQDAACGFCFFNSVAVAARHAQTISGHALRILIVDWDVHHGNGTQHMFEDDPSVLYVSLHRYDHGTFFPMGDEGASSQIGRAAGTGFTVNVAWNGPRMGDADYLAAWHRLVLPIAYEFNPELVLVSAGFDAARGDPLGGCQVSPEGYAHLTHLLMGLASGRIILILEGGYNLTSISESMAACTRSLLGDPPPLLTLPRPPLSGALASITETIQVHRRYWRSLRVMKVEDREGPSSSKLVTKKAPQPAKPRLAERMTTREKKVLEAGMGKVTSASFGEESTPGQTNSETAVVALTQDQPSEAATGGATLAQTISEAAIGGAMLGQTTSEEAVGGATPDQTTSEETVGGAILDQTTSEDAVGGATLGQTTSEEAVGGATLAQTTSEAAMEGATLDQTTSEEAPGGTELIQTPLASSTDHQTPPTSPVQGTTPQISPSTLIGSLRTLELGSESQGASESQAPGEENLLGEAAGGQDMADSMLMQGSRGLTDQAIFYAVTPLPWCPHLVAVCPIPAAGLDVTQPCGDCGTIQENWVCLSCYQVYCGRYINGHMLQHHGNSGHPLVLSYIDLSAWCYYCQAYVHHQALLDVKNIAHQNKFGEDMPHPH
Nature of the series: Fluorescence-based HDAC activity assay, recombinant HDAC6.

The test system of series [10] is HDAC active isolates from HeLa cytosolic extract. Nature of the series: Fluorescence-based HDAC activity assay, HeLa cytosolic extract. The conditions noted are these: for IC50: read-out: HDAC inhibition IC50, HeLa cytosolic extract, 1 μg extract, 25 μM Fluor-de-Lys substrate, 60 min.
Protocol: (§1) Briefly, cell pellets from mass cultures were resuspended and incubated in cell extraction buffer (20 mM HEPES, 10 mM KCl, 0.1 mM EDTA, 0.1 mM EGTA, 1.5 mM MgCl2, 0.5 mM DTT) containing 0.1% Triton X-100 to lyse cell membranes and leave intact nuclei. After centrifugation (3,000 g, 2 min), the supernatant containing cytosolic proteins was aspirated from the nuclei pellet and the protein concentration of the cytosolic fraction was determined by a standard Bradford assay (Pierce/Thermo Scientific).
(§2) A fluorescence-based HDAC activity assay was used to assess the compound specificity for distinct HDAC classes. […] The Fluor-de-Lys substrate used allows to measure broad-spectrum HDAC activity from extracts or recombinant protein.
Series [11] deals with EGF-stimulated MCF-7/Topo cells. Nature of the series: Matrigel-Transwell-Migration Assay. The format is cell-based. The settings on record: EGF 200 ng/mL, 48 h. As for the experimental part: FIG. 6: Influence of imidazole-based HDAC inhibitors Et-Animacroxam (compound 3) and Bimacroxam (compound 4) on resistance factors in tumor cell lines. A: Western blot analysis of Akt-phosphorylation (phospho-Akt) in 518A2 and MCF-7/Topo cell lysates (10 μg protein each) after 6 h of incubation. […] The amount of invasive cells was determined after calcein treatment via fluorescence measurement and DMSO-treated controls without EGF were set to 100%.

A short description of the next series: Tolerance in Balb/c mice. The format is in vivo. The conditions noted are these: two Balb/c mice. From the text: FIG. 8: Tolerance of Et-Animacroxam (compound 3) in two Balb/c mice (x-axis: day 1-7; y-axis: weight in gram).
The test system of series [12] is 1411HP xenograft (Cisplatin-resistant testicular cancer). Nature of the series: 1411HP xenograft model. The conditions noted are these: 150 mg/kg i.p. In kind it is in vivo, mouse. As for the experimental part:
FIG. 9: Activity of Et-Animacroxam (compound 3) in the 1411HP xenograft model (left: before treatment; right: 24 h after treatment with 150 mg/kg i.p. of Et-Animacroxam).

In series [13] the test system is HDAC active isolates from HeLa nuclear extract. Nature of the series: Fluorescence-based HDAC activity assay, HeLa nuclear extract. The conditions noted are these: read-out: HDAC inhibition IC50, HeLa nuclear extract; 0.5 μg extract, 25 μM Fluor-de-Lys substrate, 60 min.
Protocol: as §1, §2

Protocol for recombinant human HDAC1: as §1, §2
Description for recombinant human HDAC6: as §2

In the case of `Cn1cnc(-c2ccc(F)cc2)c1-c1ccc(C=CC(=O)NO)cc1` [Compound F-3, 1-Methyl-4-(4-fluorophenyl)-5-(4′-hydroxyaminocarbonylethenyl-phenyl)-imidazole×HCl], the IC50 stood at 1940 ± 40 nM in series [1] (72 h) and 1450 ± 60 nM in series [2] (72 h).
The corresponding values for `Cn1cnc(-c2ccccc2)c1-c1cccc(C=CC(=O)NO)c1` [Compound iso-4, 1-Methyl-4-phenyl-5-(3′-hydroxyaminocarbonylethenyl-phenyl)-imidazole×HCl] are 2230 ± 60 nM and 2800 ± 70 nM.
As for `Cn1cnc(-c2ccccc2)c1-c1ccc(/C=C/C(=O)NO)cc1` [Compound 4, 1-Methyl-4-phenyl-5-(4′-hydroxyaminocarbonylethenyl-phenyl)-imidazole×HCl], the IC50 came to 2760 ± 620 nM in [1] (Homo sapiens, 518A2, 72 h); 1330 ± 70 nM in [2] (Homo sapiens, HT-29, 72 h); 15300 ± 1400 nM in [3] (Homo sapiens, MCF7/Topo, 72 h; read-out: IC50 MCF-7/Topo); 5040 ± 1820 nM in series [4]; 160 ± 30 nM in [5]; 550 ± 290 nM in series [6] (Homo sapiens, HUVEC). Further, the IC50 was above 50000 nM in series [7]; 234 nM in series [9]; 28 ± 11 nM at recombinant human HDAC1; 107 ± 23 nM at recombinant human HDAC6; 132 ± 14 nM in series [10]. Moreover, the “fold stronger in the Ea.hy926 cell line compared with 3 and SAHA” value in [5] (Ea.hy926) was 10 fold. Besides, the “fold stronger in primary endothelial cells compared with 3 and SAHA” value in series [6] (HUVEC) is listed as 12 fold. For the same compound, the “acetylation of histone proteins (H2B) and alpha-tubulin after drug treatment” value in the series on 518A2 melanoma cells is listed as “vastly acetylated”. Also, the acetylated alpha-tubulin result in series [8] is given as “much higher extent compared with cells treated with SAHA”. For the same compound, the “fold less efficacious than vorinostat on HDAC1” value at recombinant human HDAC1 is reported as “ca. twofold”.
In the case of `COc1ccc(-c2ncn(C)c2-c2ccc(C=CC(=O)NO)cc2)cc1` [Compound Nor-3, 1-Methyl-4-(4-methoxyphenyl)-5-(4′-hydroxyaminocarbonylethenyl-phenyl)-imidazole×HCl], the IC50 in series [1] (72 h) was 1450 ± 70 nM; in series [2] (72 h) it was 710 ± 60 nM; in series [6], 830 ± 260 nM.
With `Cn1cnc(-c2ccccc2)c1-c1ccc(/C=C/C(=O)NO)cc1` (as salt: HCl) [Compound 4, 1-Methyl-4-phenyl-5-(4′-hydroxyaminocarbonylethenyl-phenyl)-imidazole×HCl], the melting point is 189 to 190 °C.
For `CCn1cnc(-c2ccc(OC)cc2)c1-c1ccc(/C=C/C(=O)NO)cc1` [Compound 3, 1-Ethyl-4-(4-methoxyphenyl)-5-(4′-hydroxyaminocarbonylethenyl-phenyl)-imidazole×HCl], the IC50 in series [1] (Homo sapiens, 518A2, 72 h) amounted to 950 ± 190 nM; in series [2] (Homo sapiens, HT-29, 72 h) it was 450 ± 30 nM; in series [3] (Homo sapiens, MCF7/Topo, 72 h, read-out: IC50 MCF-7/Topo), 5600 ± 330 nM; in series [4] it was 2910 ± 980 nM; in series [5], 990 ± 130 nM; in [6] (Homo sapiens, HUVEC), 1260 ± 450 nM. For the same compound, the IC50 in series [7] is above 50000 nM; on recombinant human HDAC1 it was 187 ± 37 nM; at recombinant human HDAC6, 66 nM; in series [13] it was 504 ± 24 nM; in [10] it was 36 ± 14 nM. Moreover, the “apoptosis induction (caspase-9-cleavage)” value in the series with 518A2 melanoma cells (3-24 h) is “leads to apoptosis induction (caspase-9-cleavage)”. For the same compound, the “acetylation of histone proteins (H2B) and alpha-tubulin after drug treatment” value in the series with 518A2 melanoma cells is on record as “vastly acetylated”. The acetylated alpha-tubulin result in series [8] is “much higher extent compared with cells treated with SAHA”. Moreover, the “invasiveness of MCF-7/Topo cells” value in [11] is “significantly reduced invasiveness”. Also, the signs of toxicity result in the series “Tolerance in Balb/c mice” (2×20 mg/kg i.p. on two consecutive days) is “no signs of toxicity”. The “weight of treated mice” value in “Tolerance in Balb/c mice” (2×20 mg/kg i.p., day 1-7) is recorded as “roughly remained the same”. In addition, the “diameter of bigger vessels of the tumor body” value in series [12] (after 24 h) is on record as “reduced significantly”. For the same compound, in series [12] (mouse), the visible side effects result is given as “did not cause any visible side effects”. Also, on recombinant human HDAC1, the “fold less efficacious than vorinostat on HDAC1” value is “ca. tenfold”. Also, the “times more active than vorinostat in the cytosolic fraction” value in series [10] (HeLa cytosolic extract) is “ca. four”. Also, the “times more HDAC inhibiting in the cytosolic than in the nuclear fraction” value in series [10] (HeLa cytosolic vs nuclear extract) is reported as “ca. 14 times”.
